According to patent US12150940B2, “WASp-protecting small molecules, compositions, methods and uses thereof in the treatment of innate and acquired immune-related disorders or conditions” (BAR ILAN UNIVERSITY, priority 2016, dated 2024):

How the values were obtained:
N-WASp = biological target: T1, N-WASp (Homo sapiens, UniProt O00401); test: MST binding, YFP-N-WASp in HEK 293T cell lysate
T1 construct: expressed in transfected cells; host or cells: HEK 293T, transient transfection; unpurified cell lysate
Experimental: Diluted cell lysates of YFP-WASp/N-WASp/WAVE2-expressing HEK 293T cells were incubated with serially-diluted (100 μM-3 nM) SMCs. The mixed lysates and SMCs were then loaded into standard-treated Monolith™ capillaries and the fluorescence of the samples was measured by the Monolith NT.115 instrument at 60% MST power. Binding curves of WASp with SMC #6 (FIG. 3A), SMC #30 (FIG. 3B), SMC #33 (FIG. 3C), SMC #34 (FIG. 3D) and Y-27632 (FIG. 3E) or of N-WASp (FIG. 3F) or WAVE2 (FIG. 3G) with SMC #34 were generated by the NanoTemper Analysis 2.231 software. Normalized fluorescence (hot fluorescence/initial fluorescence) is plotted as a function of SMC concentration. […]
YFP-tagged WASp was obtained from cell lysates of Human Embryonic Kidney (HEK) 293T, transiently transfected with YFP-WASp/WAVE2/N-WASp by DNA-calcium phosphate co-precipitation as previously described (Reicher et al, 2012). […] After loading into the instrument (Monolith NT.115, NanoTemper), the samples were measured by standard protocols at 60% MST power. […] KD values were determined using the NanoTemper analysis software (NT Analysis 1.5.37 or 2.2.31).
Following this in silico screening, the inventors identified eight SMCs (#6, #23, #24, #25, #30, #32, #33, #34, see Table 1). […] The SMCs that specifically bind the degradation pocket of WASp were further evaluated by the inventors.

YFP-WASp R86C or Y107C = test: WASp expression in WASp knockout Jurkat lines expressing only YFP-WASp R86C or Y107C (western blot); format: cell-based, human; settings: WAS−/−/WASp R86C or Y107C, vs control-treated cells
Experimental: The cells were then co-stimulated with anti-CD3 and anti-CD28 and analyzed by western blot as described in FIG. 14B. […] Relative protein expression was determined by densitometric analysis and is presented below the corresponding lanes.
CRISPR/CAS9 knockdown of endogenous WASp in T-cells was conducted according to published protocol (Ran F A et al, 2013). The vector pSpCas9 (BB)-2A-GFP (PX458) was purchased from Addgene, plasmid #48138. RNA guides were designed to target an intron/exon junction in the WAS gene, in order to eliminate gene silencing of exogenous YFP-WASp. RNA guide sequences aimed for WASp locus were constructed using the online CRISPR design tool algorithm (Zhang Lab) and NCBI gene. The guides which received the highest score were selected to be subcloned into the pSpCas9 (BB)-2A-GFP (PX458) vector.
The sequence present in WASp exons is bold. The sequence that is complementary to WASp intron (chromosome X, GRCh38.p7 nucleotides 1883-1890) is underlined. Knockout of endogenous WASp was conducted in Jurkat cells alone or in Jurkat cells stably expressing YFP-WASp containing the following mutations, R86C (as denoted by SEQ ID NO. 13 and encoded by SEQ ID NO. 14) or Y107C (as denoted by SEQ ID NO. 15 and encoded by SEQ ID NO. 16). […]
Cells exclusively expressing the YFP-WASp mutants were incubated with SMC #34 or solvent, stimulated and analyzed by western blot.

[1] = test system: WAS−/−/WASp R86C Jurkat T-cells; test: Lymphocyte activation (CD69, flow cytometry) in WAS−/−/WASp R86C cells; format: cell-based, human; settings: cells exclusively expressing YFP-WASp R86C, PMA and Ionomycin, vs control
Experimental: 1×10^6 WASp knockout Jurkat T-cell line that expresses only exogenous YFP-WASp harboring the common human WAS and XLT mutation, R86C (WAS−/−/WASp R86C) was pretreated with either negative control or SMC #34. Cells that completely lack WASp expression (WAS^−/−) were also treated with the control. The cells were then stimulated with PMA and Ionomycin. After incubation, the cells were stained with PE-Cy5™-conjugated mouse anti-human CD69 and lymphocyte activation was measured by flow cytometry as described in Experimental procedures. Histogram of negative control versus SMC #34 is presented.
PBMCs or Jurkat cells (about 3×10^5 cells) were incubated for 4 h, at 37° C. with 50 ng/ml PMA and 250 ng/ml lonomycin, or 40 ng/ml PMA and 6 μM Ionomycin, respectively, or left untreated. After incubation, the cells were collected and stained with 1 μg/ml anti-active human LFA-1 antibody (purified from KIM127 hybridoma sup, ATCC Cat #: CRL-2838, Sigma) for 30 min in 37° C., followed by staining with Alexa488-Fluor goat anti-mouse IgG1 secondary antibody (Molecular Probes, Cat #: A-21121), 30 min on ice. Cells were then co-stained with PE-Cy5™-conjugated mouse anti-human CD69 (BD Pharmingen, Cat #: 555532) to measure lymphocyte activation.

T1 sequence (O00401 whole entry, species assumed): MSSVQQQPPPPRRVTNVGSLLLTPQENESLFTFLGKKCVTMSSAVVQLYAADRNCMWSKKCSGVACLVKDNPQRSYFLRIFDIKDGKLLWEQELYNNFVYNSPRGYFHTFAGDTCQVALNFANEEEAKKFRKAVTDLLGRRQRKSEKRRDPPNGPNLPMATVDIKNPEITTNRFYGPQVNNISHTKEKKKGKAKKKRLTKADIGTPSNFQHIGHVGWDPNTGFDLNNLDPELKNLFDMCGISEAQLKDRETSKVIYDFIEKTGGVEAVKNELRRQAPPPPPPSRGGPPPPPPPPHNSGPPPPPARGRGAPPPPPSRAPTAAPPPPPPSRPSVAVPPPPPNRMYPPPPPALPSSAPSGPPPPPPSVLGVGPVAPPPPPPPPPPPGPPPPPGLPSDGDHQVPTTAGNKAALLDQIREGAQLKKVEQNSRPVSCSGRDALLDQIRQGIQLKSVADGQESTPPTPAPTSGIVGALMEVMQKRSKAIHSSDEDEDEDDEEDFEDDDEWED

SMILES: CC1CCCC(C)N1C(=O)CSc1nnc(COc2cccc3cccnc23)o1 (stereo not drawn) [SMC #34, 1-(2,6-dimethylpiperidin-1-yl)-2-[[5-(quinolin-8-yloxymethyl)-1,3,4-oxadiazol-2-yl]sulfanyl]ethanone]
- binding to N-WASp (N-WASp): no binding
- WASp expression in cells exclusively expressing the YFP-WASp mutants (YFP-WASp R86C or Y107C): increased WASp expression
- lymphocyte activation (CD69) [1]: upregulation of lymphocyte activation
